Results taken from article PMC3556473, “Absorption, metabolism and excretion of [^14C]pomalidomide in humans following oral administration” (Cancer Chemotherapy and Pharmacology, 2012).
“And” between values parts separate entries of the source, which are not always exact repeats. Equal values may be shown once.

Tests used:
T cell IL-2 production = experiment: Enhancement of primary human T cell IL-2 production (anti-CD3 stimulated, 2-day culture); format: cell-based; details: 48 h, anti-CD3 stimulated primary human T cells
Method: (§1) Metabolites and hydrolysis products of pomalidomide were tested for pharmacological activity in the following three assay systems: (1) inhibition of MM cell proliferation, (2) enhancement of primary human T cell IL-2 production and (3) inhibition of TNF-α production by lipopolysaccharide (LPS)-stimulated human peripheral blood mononuclear cells (PBMC). For all three assay types, compounds were dissolved in 100 % dimethyl sulfoxide (DMSO) and diluted into complete cell culture medium, consisting of Roswell Park Memorial Institute (RPMI)-1640 plus penicillin, streptomycin and L-glutamine (Mediatech, Manassas, VA). The MM cell proliferation cell culture medium contained 10 % fetal bovine serum, while the primary human cell cultures contained 10 % human AB serum (Invitrogen, Brown Deer, WI). The final DMSO concentration in the cell culture media was 0.25 %.
(§2) The human MM cell line OPM-2 was obtained from DSMZ (Braunschweig, Germany), and human MM cell lines U266 B1 and NCI-H929 were obtained from ATCC (Manassas, VA). Inhibition of MM cell proliferation was assessed by the [^3H]-thymidine incorporation assay in a 3-day culture in the presence of compounds in complete medium, as previously described. Primary human T cells were isolated from PBMC by negative selection using the RosetteSep T Cell Enrichment Cocktail (STEMCELL Technologies, Tukwila, WA) according to the manufacturer’s procedures. Costimulation of T cell IL-2 production was measured in a 2-day culture of primary human T cells isolated from healthy donors stimulated with anti-CD3 antibody in the presence of compounds, as previously described. Inhibition of TNF-α production by LPS-stimulated human PBMC was measured in a 1-day culture in the presence of compound, as previously described.

[1] = Plasma pharmacokinetics of pomalidomide and circulating metabolites by radiochromatography (metabolite profiling); format: in vivo, human; set-up: AUC0–24 / AUC0−∞: concentration or dose not given beside the values; details: for Plasma (% AUC relative to TRA): AUC0–24 (unchanged drug or metabolite)/AUC0–24 (TRA) * 100 %; for Tmax / half-life: human, oral, 2 mg; for Tmax: median and range; for half-life: male, read-out: t ½ (converted); for AUC/AUCTRA: plasma exposure relative to total radioactivity
Method: Individual plasma samples collected from all subjects at 1, 2.5, 4, 6, 10, 12 and 24 h post-dose were analyzed for metabolite profiling. Samples were extracted with acetonitrile, the supernatant was removed, and the pellet was washed with 0.1 % formic acid in water and extracted again with acetonitrile. The combined supernatants were adjusted to 15 or 25 mL by adding acetonitrile then evaporated to dryness under a stream of nitrogen. The residues were re-suspended in 0.1 % formic acid in water, assayed for extraction recovery and analyzed for metabolite profiling. A control plasma sample spiked with [^14C]pomalidomide was extracted in a similar manner to determine the extraction efficiency and stability of [^14C]pomalidomide.
(§3) HPLC analysis for metabolite profiling (HPLC Method 1) was performed using a Waters 2695 Alliance Separation Module (Waters Corp., Milford, MA) with the autosampler set to 4 °C. [^14C]Pomalidomide and metabolites were separated using an ACE C18 column (150 × 4.6 mm, 3 μm; Advanced Chromatography Technologies, Aberdeen, Scotland) equipped with an ACE C18 guard column (10 × 3 mm, 3 μm). The mobile phases used were 25 mM ammonium acetate in water: pH 5.5 with formic acid (mobile phase A) and methanol (mobile phase B). The column temperature was 30 °C, and the flow rate was 0.7 mL/min. The linear gradient was delivered as follows: 0–2 min 100 % A; 2–38 min to 64 % A; 38–44 min to 0 % A; 44–48 min hold at 0 % A; return to initial conditions over 2 min.
(§4) Radioactivity profiles for plasma and excreta were determined by collecting the column eluate into 96-well Deepwell LumaPlates™ at a rate of 0.25 min/fraction. The plates were dried and the radioactivity in each well determined using a PerkinElmer TopCount® NXT™ Microplate Scintillation Counter. HPLC radiochromatograms were reconstructed using LC-ARC data handling software.
For pomalidomide and metabolite concentrations in plasma based on metabolite profiling data, pharmacokinetic data were generated by non-compartmental analysis of plasma versus time profiles using WinNonlin (version 4.1, Enterprise Edition).

CYP2D6 = molecular target: T1, CYP2D6 (Homo sapiens, UniProt P10635); experiment: In vitro CYP phenotyping (M17 formation from [14C]pomalidomide); format: in vitro ADME
T1 construct: purchased Cypex Ltd (Scotland, UK)
Method: The CYP enzymes responsible for the formation of the hydroxy pomalidomide metabolites were investigated using 10 recombinant human CYP (rCYP) enzymes (CYP1A2, CYP2A6, CYP2B6, CYP2C8, CYP2C9, CYP2C19, CYP2D6, CYP2E1, CYP3A4 and CYP3A5) at 100 pmol/mL. Incubations were prepared using [^14C]pomalidomide (1 μM) in 0.1 M potassium phosphate buffer (pH 7.4) with 4 mM MgCl2, pre-incubated for 5 min at 37 °C. Reactions were initiated by the addition of 1 mM NADPH and continued for 30 or 60 min. Reactions were quenched with two volumes of ice-cold 0.1 % formic acid in acetonitrile containing [^13C5]pomalidomide as internal standard. The samples were mixed and centrifuged, and a subsample of the supernatant evaporated to dryness. The resulting pellet was reconstituted in 0.1 % formic acid in water and acetonitrile (4:1, v/v) and analyzed using HPLC with radiochromatography and/or LC–MS/MS. The rate of formation of the notable human metabolite M17 was calculated and scaled to human in vivo situation using relative abundance method.

PBMC TNF-α production = experiment: Inhibition of TNF-α production by LPS-stimulated human PBMC (1-day culture); format: cell-based; details: 24 h
Method: as §1, §2

[2] = Metabolite profiling of urine and feces (% of dose excreted); format: in vivo, human; details: for % of dose excreted, Feces: pooled feces 0–96 h; for % of dose excreted, Feces / % of dose excreted, Urine: radiochromatography; for % of dose excreted, Urine: pooled urine 0–72 h
Method: For each subject, urine samples were pooled using an equal percentage by volume of the 0–6, 6–12, 12–24, 24–48 and 48–72 h samples. Pools of the 0–6, 6–12, 12–24, 24–48 and 48-72 h collections were also prepared across subjects and analyzed for metabolite profiling. Samples were mixed and centrifuged prior to the supernatants being transferred to fresh tubes for metabolite profiling analysis.
For each subject, fecal homogenates for metabolite profiling were pooled using an equal percentage by weight of the 0–24, 24–48, 48–72 and 72–96 h samples. Pools of the 0–24, 24-48, 48–72 and 72–96 h collections were also prepared across subjects and analyzed for metabolite profiling. An aliquot of each pool was extracted with acetonitrile; samples were mixed and centrifuged. The supernatant was removed and the pellets re-suspended with 0.1 % formic acid and extracted with acetonitrile. The combined supernatants were evaporated to dryness under a stream of nitrogen and the residue re-suspended in methanol:0.1 % formic acid in water (1:1). Samples were assayed for extraction recovery prior to metabolite profiling. A control fecal homogenate spiked with [^14C]pomalidomide was extracted in a similar manner to determine the extraction efficiency and stability of [^14C]pomalidomide.
as §3, §4

[3] = plasma, plasma, radiochromatography, geometric mean (%CV)
[4] = plasma, radiochromatography, geometric mean (%CV)

T1 sequence (P10635 whole entry): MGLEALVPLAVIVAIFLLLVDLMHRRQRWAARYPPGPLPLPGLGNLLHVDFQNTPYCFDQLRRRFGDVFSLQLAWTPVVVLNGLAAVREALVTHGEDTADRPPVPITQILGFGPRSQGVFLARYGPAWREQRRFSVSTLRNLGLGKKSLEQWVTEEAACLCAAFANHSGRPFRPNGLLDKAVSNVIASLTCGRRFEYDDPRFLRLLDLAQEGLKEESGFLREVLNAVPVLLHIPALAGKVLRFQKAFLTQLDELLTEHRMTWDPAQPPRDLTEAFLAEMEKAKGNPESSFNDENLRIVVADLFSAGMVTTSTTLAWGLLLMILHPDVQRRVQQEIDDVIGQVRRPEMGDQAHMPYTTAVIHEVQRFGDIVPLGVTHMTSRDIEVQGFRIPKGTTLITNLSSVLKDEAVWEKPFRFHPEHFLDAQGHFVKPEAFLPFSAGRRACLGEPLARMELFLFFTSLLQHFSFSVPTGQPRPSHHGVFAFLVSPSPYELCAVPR

Row | EC50 (T cell IL-2 production) | Plasma (% AUC relative to TRA) [1] | Tmax ([1]; plasma, radiochromatography) | half-life [1, 3] | AUC/AUCTRA [1] | AUC/AUCTRA ([1]; listed as pomalidomide) | AUC0–24 [1, 4] | AUC0−∞ [1, 4] | C max [1, 4] | t ½ [1, 4] | relative contribution of isozyme to the hepatic metabolism of pomalidomide (CYP2D6; CYP2D6, scaled by relative abundance in human liver) | Percent dose excreted in human urine, Parent ([2]; pomalidomide, this study) | Percent dose excreted in human urine, Total ([2]; pomalidomide, this study) | % of dose excreted, Feces [2] | % of dose excreted, Feces ([2]; listed as pomalidomide) | % of dose excreted, Urine [2] | dose excreted as unchanged drug (excreta) ([2]; urine + feces, % of the dose) | rate of M17 formation (CYP2D6; rCYP2D6, [14C]pomalidomide 1 μM, 1-h incubation, based on peak area ratios, estimated) | Compound | IC50 (PBMC TNF-α production)
1 | 22 nM | 69.6% | 2.5 h | 9.4 h | 70% and 69.6% | approximately 70% | 135 (33.4) ngEq*h/mL | 165 (43.2) ngEq*h/mL | 11.0 (22.5) ngEq/mL | 9.41 (25.0) h | 4% | 2.2% | 72.8% | 7.7% | 8% | 2.2% | 10% |  | Nc1cccc2c1C(=O)N(C1CCC(=O)NC1=O)C2=O (racemic) [Pomalidomide, (RS)-4-amino-2-(2,6-dioxo-piperidin-3-yl)-isoindoline-1,3-dione] | 3.1 nM
2 | > 10000 nM | 4.0% | 2.5 h | 11 h | 4.00% |  | 7.76 (24.8) ngEq*h/mL | 11.5 (36.9) ngEq*h/mL | 0.68 (33.3) ngEq/mL |  |  |  |  | 2.8% |  | 3.2% |  | 0.0011 pmol/min/pmol P450 | Nc1c(O)ccc2c1C(=O)N(C1CCC(=O)NC1=O)C2=O (stereo not drawn) [Metabolite M17, 5-hydroxy pomalidomide] | > 10000 nM
